# Assay results taken from patent US20250325547A1, “ANTI-SARS-COV-2 DRUG” (KAGOSHIMA UNIVERSITY, priority 2021, published 2025).
# Like-named read-outs stand apart in the source and are kept apart here.
# Columns and labels:
# SARS-CoV-2 (WK-521) = assay: microbe, parasite or virus in culture; assay type: cell-based
# in vitro [1] = details: African green monkey
# SARS-CoV-2 [2] = assay: Anti-SARS-CoV-2 RNA assay in VeroE6/TMPRSS2 cells; assay type: cell-based; details: Table 5, VeroE6/TMPRSS2 (RNA)
# SARS-CoV-2 [3] = assay: Anti-SARS-CoV-2 RNA assay in Vero cells; assay type: cell-based; details: Table 5, Vero (RNA)
# in vitro [4] = details: human
# [5] = test system: SARS-CoV-2 (WK-521 strain); assay: microbe, parasite or virus in culture; details: Severe acute respiratory syndrome coronavirus 2, HEK-293T, 72 h
# [6] = test system: SARS-CoV-2 (WK-521 strain); details: for EC50: HEK293T/ACE2 (RNA), WK-521, MOI 0.1, 3 days
# [7] = Severe acute respiratory syndrome coronavirus 2, 72 h, read-out: EC50 (50% effective concentration, inhibits cell death induced by SARS-CoV-2 infection by 50%), VeroE6/TMPRSS2 cells, SARS-CoV-2 WK-521, MOI 0.01, 3 days, Tables 1-4
# [8] = Severe acute respiratory syndrome coronavirus 2
# [9] = read-out: EC50 (50% effective concentration, inhibits cell death induced by SARS-CoV-2 infection by 50%), VeroE6/TMPRSS2 cells, SARS-CoV-2 WK-521, MOI 0.01, 3 days, Tables 1-4
# [10] = read-out: CC50 (50% toxicity concentration, reduces the number of viable cells in non-infected cells by 50%), non-infected VeroE6/TMPRSS2 cells, 3 days, Tables 1-4
# [11] = read-out: EC50 (50% effective concentration, inhibits cell death induced by SARS-CoV-2 infection by 50%)
# [12] = Table 5, HEK293T/ACE2, lower row
SMILES,EC50 (SARS-CoV-2 (WK-521); [7]),CC50 at 3 days (in vitro [1]),further results
CCCN(Cc1cc(Nc2ncnc3ccccc23)cc(Cl)c1O)C(C)C [Compound 21],11.7 µM,> 100 µM,
CCN(CC)Cc1cc(Nc2nc(N(C)C)nc3ccccc23)cc(I)c1O [Compound 6],12.9 µM,49.9 µM,
CCN(CC)Cc1cc(Nc2ncnc3ccccc23)cc(Br)c1O [Compound 3],23.9 µM,> 100 µM,
CCN(Cc1cc(Nc2ncnc3ccccc23)cc(Cl)c1O)C1CCCCC1 [Compound 19],,> 100 µM,"EC50 (SARS-CoV-2 (WK-521); Severe acute respiratory syndrome coronavirus 2, Table 5, VeroE6/TMPRSS2 (CPE), read-out: EC50): 3.2 µM; EC50 (SARS-CoV-2 [2]; [8]): 2.9 µM; EC50 (SARS-CoV-2 [3]; [8]): 2.9 µM; CC50 (VeroE6/TMPRSS2 cells; African green monkey, 3 days): > 100 µM; CC50 at 3 days (in vitro [4]): 36.1 µM; EC50 [5]: 0.14 µM"
CCN(C)Cc1cc(Nc2ncnc3ccccc23)cc(I)c1O [Compound 8],,,EC50 (SARS-CoV-2 (WK-521); [9]): 57.6 µM; CC50 (VeroE6/TMPRSS2 cells; [10]): > 100 µM
CCN(Cc1cc(Nc2ncnc3ccccc23)cc(Cl)c1O)c1ccc(F)c(Cl)c1 [Compound 30],10.8 µM,> 100 µM,
CC(C)N(Cc1cc(Nc2ncnc3ccccc23)cc(Cl)c1O)C(C)C [Compound 15],,,"EC50 (SARS-CoV-2 (WK-521); [11]): 3.3 µM; EC50 (SARS-CoV-2 [2]): 1.9 µM; EC50 (SARS-CoV-2 [3]): 1.7 µM; CC50 (VeroE6/TMPRSS2 cells; Table 5, VeroE6/TMPRSS2 (CPE)): > 100 µM; CC50 (VeroE6/TMPRSS2 cells; [10]): > 100 µM; selectivity coefficient (CC50/EC50) [6]: > 833; EC50 [6]: 0.12 µM; CC50 (HEK293T/ACE2 cells; [12]): > 100 µM; CC50 (HEK293T/ACE2 cells; read-out: 50% toxicity concentration (CC50), HEK293T/ACE2 cells, text b80): > 100 µM"
CCN(Cc1cc(Nc2ncnc3ccccc23)cc(Cl)c1O)CC(C)(C)C [Compound 32],20 µM,60.2 µM,
CCN(Cc1cc(Nc2ncnc3ccccc23)cc(Cl)c1O)C(C)(C)C [Compound 20],3.9 µM,> 100 µM,
CC(C)N(Cc1cc(Nc2ncnc3cc(F)ccc23)cc(Cl)c1O)C(C)C [Compound 25],2.5 µM,> 100 µM,
CC(C)N(Cc1cc(Nc2ncnc3ccccc23)cc(Cl)c1O)C(C)(C)C [Compound 22],10.8 µM,> 100 µM,
C[C@H]1C[C@H](C)CN(Cc2cc(Nc3ncnc4ccccc34)cc(Cl)c2O)C1 [Compound 31],19.4 µM,37.5 µM,
CN(Cc1ccccc1)Cc1cc(Nc2ncnc3ccccc23)cc(I)c1O [Compound 9],,,EC50 (SARS-CoV-2 (WK-521); [9]): 8 µM; CC50 (VeroE6/TMPRSS2 cells; [10]): 38.1 µM
CC1CC(C)CN(Cc2cc(Nc3ncnc4ccccc34)cc(Cl)c2O)C1 (stereo not drawn) [Compound 24],2.1 µM,> 100 µM,
CCNCc1cc(Nc2ncnc3ccccc23)cc(I)c1O [Compound 13],44.7 µM,> 100 µM,
CC(C)N(Cc1cc(Nc2ncnc3ccccc23)cc(I)c1O)C(C)C [Compound 16],,,EC50 (SARS-CoV-2 (WK-521); [9]): 44.6 µM; CC50 (VeroE6/TMPRSS2 cells; [10]): > 100 µM
CCCN(CCC)Cc1cc(Nc2ncnc3ccccc23)cc(Cl)c1O [Compound 23],15.3 µM,> 100 µM,
C[C@@H]1CN(Cc2cc(Nc3ncnc4ccccc34)cc(Cl)c2O)[C@@H](C)CN1C (racemic) [Compound 33],54.7 µM,> 100 µM,
CCN(Cc1cc(Nc2ncnc3ccccc23)ccc1O)c1ccc(Cl)cc1 [Compound 26],11.7 µM,> 100 µM,
CC(C)N(Cc1ccncc1)Cc1cc(Nc2ncnc3ccccc23)cc(Cl)c1O [Compound 29],10.6 µM,> 100 µM,
CCN(Cc1cc(Nc2ncnc3ccccc23)cc(Cl)c1O)c1ccc(Cl)cc1 [Compound 28],10 µM,> 100 µM,
CCN(CC)Cc1cc(Nc2ncnc3cc(OC)c(OC)cc23)cc(I)c1O [Compound 5],31.6 µM,> 100 µM,
CCN(CC)Cc1cc(Nc2nc(N(C)C)nc3ccccc23)cc(Cl)c1O [Compound 7],7.2 µM,49.2 µM,
CCN(CC)Cc1cc(Nc2ncnc3ccccc23)cc(I)c1O [Compound 4],16.9 µM,> 100 µM,
CCN(Cc1cc(Nc2ncnc3ccccc23)cc(Cl)c1O)C(C)C [Compound 11],,,"EC50 (SARS-CoV-2 (WK-521); [11]): 7.6 µM; EC50 (SARS-CoV-2 [2]): 1.9 µM; EC50 (SARS-CoV-2 [3]): 5.5 µM; CC50 (VeroE6/TMPRSS2 cells; Table 5, VeroE6/TMPRSS2 (CPE)): > 100 µM; CC50 (VeroE6/TMPRSS2 cells; [10]): > 100 µM; EC50 [6]: 0.12 µM; CC50 (HEK293T/ACE2 cells; [12]): 85.4 µM"
CN1CCN(Cc2cc(Nc3ncnc4ccccc34)cc(I)c2O)CC1 [Compound 10],,,EC50 (SARS-CoV-2 (WK-521); [9]): 15.5 µM; CC50 (VeroE6/TMPRSS2 cells; [10]): > 100 µM
CC(C)N(Cc1cc(Nc2ncnc3ccccc23)cc(Cl)c1O[C@H]1O[C@@H](C)[C@@H](O)[C@@H](O)[C@@H]1O)C(C)C [Compound 34],60.2 µM,> 100 µM,
"CC(C)(C)[C@H](NC(=O)C(F)(F)F)C(=O)N1C[C@H]2[C@@H]([C@H]1C(=O)N[C@H](C#N)C[C@@H]1CCNC1=O)C2(C)C [Nirmatrelvir, reference compound]",,,"EC50 (SARS-CoV-2 (WK-521); Severe acute respiratory syndrome coronavirus 2, VeroE6/TMPRSS2, 72 h, read-out: EC50 (50% effective concentration, inhibits cell death induced by SARS-CoV-2 infection by 50%)): 8.3 µM; CC50 (in vitro [1]): > 100 µM"
CC(C)N(Cc1cc(Nc2ncnc3ccccc23)ccc1O)c1ccc(Cl)cc1 [Compound 27],13.9 µM,> 100 µM,
